Consider 4 molecules from patent US20260083864A1, “CONTRAST AGENTS FOR USE IN DIAGNOSTIC COMPUTED TOMOGRAPHY IMAGING” (Bayer Aktiengesellschaft, priority 2022, published 2026).

Series [1] in a line: Partition coefficient (log P butanol/buffer). As to conditions: 1-butanol / 50 mM Tris-HCl, pH 7.4, room temperature. In kind it is physicochemical.
Series [2] deals with plasma proteins. Put plainly: Plasma protein binding, equilibrium dialysis, monkey. In kind it is in vitro ADME. The source says:
(§1) The binding of Example 1 and 15 to plasma proteins of different species (human, dog, monkey, rabbit, mouse and rat) was investigated in vitro by using equilibrium dialysis in reusable 96-well Micro-Equilibrium Dialysis Devices (ht dialysis) (Banker M J et al. J Pharm Sci. 2003 May; 92 (5): 967-74).
For orientation: Equilibrium dialysis compares concentrations on both sides of a semipermeable membrane.

A further series has as its target T1, OATP1B3 (Homo sapiens, UniProt Q9NPD5).
T1 sequence (Q9NPD5 1-702): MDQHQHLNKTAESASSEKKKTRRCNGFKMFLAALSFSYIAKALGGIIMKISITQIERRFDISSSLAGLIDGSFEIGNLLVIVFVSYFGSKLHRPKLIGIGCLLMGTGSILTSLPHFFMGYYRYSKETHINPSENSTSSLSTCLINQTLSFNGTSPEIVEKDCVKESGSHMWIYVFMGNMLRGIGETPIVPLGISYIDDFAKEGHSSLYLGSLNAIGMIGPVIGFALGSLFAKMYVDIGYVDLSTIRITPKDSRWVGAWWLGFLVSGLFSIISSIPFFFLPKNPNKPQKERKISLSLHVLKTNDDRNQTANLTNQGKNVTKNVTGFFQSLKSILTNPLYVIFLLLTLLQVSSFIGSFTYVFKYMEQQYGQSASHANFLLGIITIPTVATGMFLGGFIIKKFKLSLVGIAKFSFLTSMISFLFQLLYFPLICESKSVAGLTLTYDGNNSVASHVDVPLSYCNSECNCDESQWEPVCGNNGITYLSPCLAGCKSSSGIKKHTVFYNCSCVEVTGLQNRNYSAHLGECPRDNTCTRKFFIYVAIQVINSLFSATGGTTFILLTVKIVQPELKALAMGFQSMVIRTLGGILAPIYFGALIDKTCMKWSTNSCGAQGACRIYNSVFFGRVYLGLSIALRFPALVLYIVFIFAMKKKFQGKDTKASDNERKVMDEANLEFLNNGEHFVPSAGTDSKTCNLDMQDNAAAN
Put plainly: Uptake into stable transfected OATP1B3 HEK 293 cells. Format: cell-based. As to conditions: for Uptake into OATP1B3-HEK 293 cells: 40 min incubation, relative to RC1 (Gd-EOB-DTPA); for Inhibition Rifampicine: uptake into OATP1B3-HEK 293 cells. The method, boiled down: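 HEK 293 cells stably transfected with human OATP1B3 were incubated for 40 min with test items at 100 μM final in transport buffer, in triplicate, then washed with cold PBS. Gadoxetate (Gd-EOB-DTPA) served as the reference standard on the same plate.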

Series [3] deals with plasma proteins. The series can be described thus: Plasma protein binding, equilibrium dialysis, rat. In kind it is in vitro ADME.
Text: as §1

The test system of series [4] is plasma proteins. Put plainly: Plasma protein binding, equilibrium dialysis, dog. In kind it is in vitro ADME.
Text: as §1

Series [5] in a line: Water solubility in aqueous buffer. As to conditions: aqueous buffer 10 mM Tris-HCl, pH 7.4, 20° C. Here is the method:
The solid compounds were added stepwise to the buffer solution. More substance is added once all the suspended material is dissolved until an equilibrium between undissolved and dissolved substance is reached. The suspension was mixed using a shaker (Heidolph Reax 2000) and treated 5 min in an ultrasound bath (Bandelin, Sonorex Super RK255H).

Series [6] in a line: Relaxivity measurements at 1.41 T in human plasma. Format: physicochemical. The note with it: 37° C., normalized to Gd. The method, boiled down: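 T1 determined by inversion recovery (8 inversion-time steps) and T2 by CPMG sequence, both with relaxation delay ≥5×T1. Each relaxivity used three Gd concentrations between 0.05 and 2 mM. Relaxivities were derived from relaxation rates measured in water and plasma.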

The nature of series [7]: Complex stability (transmetallation) against Zn2+ in phosphate buffer. As to conditions: 72 hours, 2.5 mM Zn^2+, 26 mM phosphate buffer, 37° C., pH 7.4. The source says:
If test compounds are instable under these conditions, transmetallation during this test would lead to the formation of the Zn^2+ complex of the test item, while Gd^3+ is released and precipitated as highly insoluble GdPO4.

A short description of series [8]: In vivo pharmacokinetics following i.v. administration in rat. Here is the method:
Pharmacokinetic parameters of Example 1 and 15 and were determined in male and female rats (Han-Wistar, n=4). […] The samples were digested using strong acidic and oxidizing conditions at elevated temperature following dilution in 1% nitric acid to bring the samples in the quantification range of the method. The lower limit of quantitation amounts to 1 nmol/L for all elements and the upper limit to 1000 nmol/L in the diluted sample.
The fit of the obtained data to a three-compartment model (Phoenix, WinNonlin 6.4, 3-compartment mode) yielded the pharmacokinetic parameters which are shown in Table 8.

Structures are written as SMILES. A value given as a limit tells only on which side of the number the result lay.

On to `CCOc1ccc(CCOCC(C(=O)O)N2CCN(CC(=O)[O-])CCN(CC(=O)[O-])CCN(CC(=O)[O-])CC2)cc1.[Gd+3]` (stereo not shown) [Example 1, gadolinium 2,2′,2″-(10-{1-carboxy-2-[2-(4-ethoxyphenyl)ethoxy]ethyl}-1,4,7,10-tetraazacyclododecane-1,4,7-triyl)triacetate], for which, in [1], the “Log P (partition coefficient butanol/buffer)” value was −0.98. This molecule also yielded a Fraction unbound fu with plasma proteins [2] of 94%. Besides, at OATP1B3, the “Uptake into OATP1B3-HEK 293 cells” value is 24 % of RC1 and the “Inhibition Rifampicine” value amounted to 97 % inhibition. The molecule further had a Fraction unbound fu in the series with plasma proteins [3] of 92%. In addition, the Fraction unbound fu in the series on plasma proteins [4] was 96%. Also, in series [5], the Solubility (commonly how much of the substance goes into solution per volume) is over 258 mM. In series [6], this molecule showed a r1 human plasma of 6.5 L/mmol/s. Moreover, the Transmetallation stability in series [7] stood at 99%. In series [8] (dose 25 μmol/kg bw), the “AUC∞ Area under the curve” value was 16 µM·h; the “Clplasma Plasma clearance” value is 26.7 mL/min/kg; the “Vss Volume of distribution at steady state” value (“Vss Volume of distribution” for short) was 0.4 L/kg; the “t½ α Half-life, compartment V1” value stood at 1.8 min. Besides, in [8] (dose 25 μmol/kg bw), the “t½ β Half-life, compartment V2” value was found to be 13 min and the “t½ γ Half-life, compartment V3” value came to 114 min. Moreover, in series [8] (dose 250 μmol/kg bw), the “AUC∞ Area under the curve” value was found to be 315 µM·h; the “Clplasma Plasma clearance” value was 13 mL/min/kg; the “Vss Volume of distribution” value is listed as 0.2 L/kg; the “t½ α Half-life, compartment V1” value is on record as 3 min. Moreover, in series [8] (dose 250 μmol/kg bw), the “t½ β Half-life, compartment V2” value stood at 11 min and the “t½ γ Half-life, compartment V3” value came to 396 min.
`CCOCCOCCOc1ccc(CC(C(=O)O)N2CCN(CC(=O)[O-])CCN(CC(=O)[O-])CCN(CC(=O)[O-])CC2)cc1.[Gd+3]` (stereo not shown) [Example 2, gadolinium 2,2′,2″-{10-[1-carboxy-2-{4-[2-(2-ethoxyethoxy)ethoxy]phenyl}ethyl]-1,4,7,10-tetraazacyclododecane-1,4,7-triyl}triacetate]: the “Log P (partition coefficient butanol/buffer)” value in [1] is on record as −1.63. For the same molecule, the Fraction unbound fu with plasma proteins [2], with plasma proteins [3] and with plasma proteins [4] was over 95% in each case. In addition, the “Uptake into OATP1B3-HEK 293 cells” value on OATP1B3 is 56 % of RC1. The “Inhibition Rifampicine” value at OATP1B3 was determined as 80 % inhibition. This molecule also displayed a Solubility in series [5] of over 757 mM. The molecule also registered a r1 human plasma in [6] of 6.2 L/mmol/s. This molecule also displayed a Transmetallation stability in series [7] of 100%.
Turning to `CCOCCOCCOc1ccc(CCC[C@@H](C(=O)O)N2CCN([C@@H](CO)C(=O)[O-])CCN([C@@H](CO)C(=O)[O-])CCN([C@@H](CO)C(=O)[O-])CC2)cc1.[Gd+3]` [Example 15, gadolinium (2S,2′S,2″S)-2,2′,2″-{10-[(1S)-1-carboxy-4-{4-[2-(2-ethoxyethoxy)ethoxy]phenyl}butyl]-1,4,7,10-tetraazacyclododecane-1,4,7-triyl}tris(3-hydroxypropanoate)], the “Log P (partition coefficient butanol/buffer)” value in series [1] is given as −1.00. Besides, the Fraction unbound fu in the series on plasma proteins [2] is 88%. Further, the “Inhibition Rifampicine” value on OATP1B3 came to 98 % inhibition. For the same molecule, in the series with plasma proteins [3], the Fraction unbound fu is recorded as 71%. The same molecule gave a Fraction unbound fu in the series on plasma proteins [4] of 91%. Moreover, in series [5], the Solubility was over 500 mM. The molecule also showed a r1 human plasma in [6] of 8.7 L/mmol/s. This molecule displayed a Transmetallation stability in series [7] of 101%. Besides, in series [8] (dose 25 μmol/kg bw), the “AUCnorm Area under the curve” value worked out at 0.38 kg·h/L; the “Clplasma Plasma clearance” value was 45 mL/min/kg; the “Vss Volume of distribution” value is listed as 0.4 L/kg; the “t½ α Half-life, compartment V1” value worked out at 3 min. Besides, in series [8] (dose 25 μmol/kg bw), the “t½ β Half-life, compartment V2” value came to 12 min and the “t½ γ Half-life, compartment V3” value amounted to 588 min.
On to `CCOc1ccc(CC(CN(CCN(CC(=O)[O-])CC(=O)[O-])CC(=O)[O-])N(CC(=O)[O-])CC(=O)[O-])cc1.[Gd+3].[Na+].[Na+]` (stereo not shown) [RC1, gadoxetate disodium, reference compound], for which the “Log P (partition coefficient butanol/buffer)” value in series [1] is given as −2.12. On OATP1B3, the “Uptake into OATP1B3-HEK 293 cells” value is given as 100 % of RC1 and the “Inhibition Rifampicine” value is given as 99 % inhibition. In series [5], this molecule displayed a Solubility of over 250 mM. The same molecule yielded a Transmetallation stability in [7] of 44%. In series [8] (dose 100 μmol/kg bw), the “AUCnorm Area under the curve” value came out at 0.40 kg·h/L; the “Clplasma Plasma clearance” value stood at 40 mL/min/kg; the “Vss Volume of distribution” value is reported as 0.9 L/kg; the “t½ α Half-life, compartment V1” value is given as 2 min. Also, in series [8] (dose 100 μmol/kg bw), the “t½ β Half-life, compartment V2” value is on record as 8 min and the “t½ γ Half-life, compartment V3” value came out at 390 min.
